In PubChem BioAssay (NCI):
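The compound was tested at five concentrations on cells cultured in 96-well plates, with a 48-hour exposure period. TGI marks complete inhibition of growth.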

Tests used:
Experiment in all cases: inhibition of tumour cell growth, NCI panel, 48 h
MDA-MB-231 breast = system: MDA-MB-231 breast
UO-31 renal = system: UO-31 renal
OVCAR-4 ovarian = system: OVCAR-4 ovarian
UACC-257 melanoma = system: UACC-257 melanoma
UACC-62 melanoma = system: UACC-62 melanoma
SF-268 CNS = system: SF-268 CNS
ACHN renal = system: ACHN renal
CAKI-1 renal = system: CAKI-1 renal
SN12C renal = system: SN12C renal
A498 renal = system: A498 renal
HOP-92 NSCLC = system: HOP-92 NSCLC
MDA-MB-435 = system: MDA-MB-435
KM12 colon = system: KM12 colon
SK-MEL-28 melanoma = system: SK-MEL-28 melanoma
HCC-2998 colon = system: HCC-2998 colon
MOLT-4 leukemia = system: MOLT-4 leukemia
SW-620 colon = system: SW-620 colon
TK-10 renal = system: TK-10 renal
EKVX NSCLC = system: EKVX NSCLC
HL-60(TB) leukemia = system: HL-60(TB) leukemia
U251 CNS = system: U251 CNS
K-562 leukemia = system: K-562 leukemia
NCI-H460 lung = system: NCI-H460 lung
MDA-N = system: MDA-N
HCT-15 colon = system: HCT-15 colon
BT-549 breast = system: BT-549 breast
SR leukemia = system: SR leukemia
SNB-19 CNS = system: SNB-19 CNS
NCI/ADR-RES ovarian = system: NCI/ADR-RES ovarian
RPMI-8226 leukemia = system: RPMI-8226 leukemia
OVCAR-8 ovarian = system: OVCAR-8 ovarian
CCRF-CEM leukemia = system: CCRF-CEM leukemia
NCI-H226 lung = system: NCI-H226 lung
NCI-H23 lung = system: NCI-H23 lung
SNB-75 CNS = system: SNB-75 CNS

Measured: TGI

CC1(C)C2CCC(CN)(C2)C1O (centres undefined)
> 100 µM: MDA-MB-231 breast | UO-31 renal | OVCAR-4 ovarian | UACC-257 melanoma | UACC-62 melanoma | SF-268 CNS | ACHN renal | CAKI-1 renal | SN12C renal | A498 renal | HOP-92 NSCLC | MDA-MB-435 | KM12 colon | SK-MEL-28 melanoma | HCC-2998 colon | MOLT-4 leukemia | SW-620 colon | TK-10 renal | EKVX NSCLC | HL-60(TB) leukemia | U251 CNS | K-562 leukemia | NCI-H460 lung | MDA-N | HCT-15 colon | BT-549 breast | SR leukemia | SNB-19 CNS | NCI/ADR-RES ovarian | RPMI-8226 leukemia | OVCAR-8 ovarian | CCRF-CEM leukemia | NCI-H226 lung | NCI-H23 lung | SNB-75 CNS

CC1(C)/C(=N\O)C2(C#N)CCC1C2 (centres undefined)
> 100 µM: MDA-MB-231 breast | UO-31 renal | OVCAR-4 ovarian | UACC-257 melanoma | UACC-62 melanoma | SF-268 CNS | ACHN renal | CAKI-1 renal | SN12C renal | A498 renal | HOP-92 NSCLC | MDA-MB-435 | KM12 colon | SK-MEL-28 melanoma | HCC-2998 colon | MOLT-4 leukemia | SW-620 colon | TK-10 renal | HL-60(TB) leukemia | U251 CNS | K-562 leukemia | NCI-H460 lung | MDA-N | HCT-15 colon | BT-549 breast | SR leukemia | SNB-19 CNS | NCI/ADR-RES ovarian | RPMI-8226 leukemia | OVCAR-8 ovarian | CCRF-CEM leukemia | NCI-H226 lung | NCI-H23 lung | SNB-75 CNS
